Reference: ChEMBL document CHEMBL1137112, “4-Acylamino-6-arylfuro[2,3-d]pyrimidines: potent and selective glycogen synthase kinase-3 inhibitors” (Bioorg Med Chem Lett, 2004)

Experiments:
[1] = molecular target: Glycogen synthase kinase-3 beta (Homo sapiens, UniProt P49841); experiment: Inhibition of human Glycogen synthase kinase-3 beta
[2] = molecular target: Cyclin-dependent kinase 2 (Homo sapiens, UniProt P24941); experiment: Inhibition of cyclin-dependent kinase 2
[3] = molecular target: Vascular endothelial growth factor receptor 2 (Homo sapiens, UniProt P35968); experiment: Inhibition of Vascular endothelial growth factor receptor 2 kinase
L6 = experiment: Potency of compound in glycogen accumulation in L6 cells; format: functional, cell-based; conditions: Rattus norvegicus

Chain of Vascular endothelial growth factor receptor 2 (P35968 whole entry): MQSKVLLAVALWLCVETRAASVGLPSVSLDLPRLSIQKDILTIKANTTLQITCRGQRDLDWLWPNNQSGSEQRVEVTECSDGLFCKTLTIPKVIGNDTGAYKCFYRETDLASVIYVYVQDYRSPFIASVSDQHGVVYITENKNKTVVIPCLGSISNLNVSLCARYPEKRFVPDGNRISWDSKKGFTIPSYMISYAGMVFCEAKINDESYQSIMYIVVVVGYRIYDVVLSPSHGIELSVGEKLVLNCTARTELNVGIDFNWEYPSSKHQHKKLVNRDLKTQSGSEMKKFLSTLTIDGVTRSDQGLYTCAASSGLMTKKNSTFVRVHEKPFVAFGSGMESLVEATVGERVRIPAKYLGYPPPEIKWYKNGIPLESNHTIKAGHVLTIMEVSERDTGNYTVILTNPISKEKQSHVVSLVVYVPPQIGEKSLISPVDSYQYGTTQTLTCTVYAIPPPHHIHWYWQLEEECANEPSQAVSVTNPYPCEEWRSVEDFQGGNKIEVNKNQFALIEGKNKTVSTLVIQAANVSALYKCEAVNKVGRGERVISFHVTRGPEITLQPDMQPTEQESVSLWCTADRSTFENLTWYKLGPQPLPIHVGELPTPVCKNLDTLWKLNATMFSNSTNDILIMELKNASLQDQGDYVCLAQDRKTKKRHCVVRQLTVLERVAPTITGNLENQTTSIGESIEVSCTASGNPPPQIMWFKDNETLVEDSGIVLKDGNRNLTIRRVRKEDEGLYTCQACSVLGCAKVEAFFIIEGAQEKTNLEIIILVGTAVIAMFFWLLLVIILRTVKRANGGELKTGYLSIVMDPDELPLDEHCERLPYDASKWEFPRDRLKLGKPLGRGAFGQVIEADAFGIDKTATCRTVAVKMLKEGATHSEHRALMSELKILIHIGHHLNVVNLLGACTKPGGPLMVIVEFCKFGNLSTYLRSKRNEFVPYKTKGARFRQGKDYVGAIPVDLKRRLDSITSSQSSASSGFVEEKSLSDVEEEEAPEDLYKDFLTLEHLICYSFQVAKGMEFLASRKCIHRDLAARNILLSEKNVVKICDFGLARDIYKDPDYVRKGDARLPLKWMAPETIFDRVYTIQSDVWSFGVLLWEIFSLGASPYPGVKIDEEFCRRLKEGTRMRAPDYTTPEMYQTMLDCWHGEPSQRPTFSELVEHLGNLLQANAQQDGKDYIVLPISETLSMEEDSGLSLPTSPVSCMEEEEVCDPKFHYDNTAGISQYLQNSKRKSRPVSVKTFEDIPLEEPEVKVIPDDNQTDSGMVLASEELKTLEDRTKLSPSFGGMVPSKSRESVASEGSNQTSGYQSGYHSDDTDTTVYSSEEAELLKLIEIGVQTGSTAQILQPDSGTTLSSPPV
Chain of Glycogen synthase kinase-3 beta (P49841 whole entry): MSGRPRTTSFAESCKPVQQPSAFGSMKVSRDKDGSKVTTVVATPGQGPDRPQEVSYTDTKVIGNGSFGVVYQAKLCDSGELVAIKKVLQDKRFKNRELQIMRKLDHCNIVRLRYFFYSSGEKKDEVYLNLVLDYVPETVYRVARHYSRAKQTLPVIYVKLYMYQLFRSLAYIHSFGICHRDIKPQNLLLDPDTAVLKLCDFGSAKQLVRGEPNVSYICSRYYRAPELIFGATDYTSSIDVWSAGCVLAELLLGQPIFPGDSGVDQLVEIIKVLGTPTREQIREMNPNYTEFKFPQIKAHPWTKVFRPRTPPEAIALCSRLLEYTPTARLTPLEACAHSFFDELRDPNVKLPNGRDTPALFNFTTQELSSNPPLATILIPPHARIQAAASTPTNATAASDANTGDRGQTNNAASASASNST

Row | SMILES | IC50 [1] [nM] | IC50 [2] [nM] | IC50 [3] [nM] | EC50 (L6) [nM]
1 | COc1ccc(-c2cc3c(NC(=O)N4CCOCC4)ncnc3o2)cc1 | > 34000 | > 20000 | > 48000 | –
2 | COc1ccc(-c2cc3c(NC(=O)N4CCCC4)ncnc3o2)cc1 | 1950 | > 21000 | 12300 | –
3 | COc1ccc(-c2cc3c(NC(=O)C4CCCC4)ncnc3o2)cc1 | 30 | > 19000 | 1020 | –
4 | Cc1ccc(-c2cc3c(NC(=O)C4CCCC4)ncnc3o2)cc1 | 240 | > 20000 | > 20000 | –
5 | O=C(Nc1ncnc2oc(-c3cccnc3)cc12)C1CCCC1 | 5 | 450 | > 24000 | 390
6 | COc1ccc(-c2cc3c(NC(=O)CCSC)ncnc3o2)cc1 | 537 | > 20000 | > 47000 | –
7 | COc1ccc(-c2cc3c(NC(=O)CC4CCCC4)ncnc3o2)cc1 | 320 | > 19000 | > 48000 | –
8 | O=C(Nc1ncnc2oc(-c3ccc(Cl)cc3)cc12)C1CC1 | 1000 | > 20000 | 2040 | –
9 | O=C(Nc1ncnc2oc(-c3ccccc3)cc12)C1CCCC1 | 20 | > 19000 | > 23000 | > 10000
10 | COc1ccc(-c2cc3c(NC(=O)C(C)C)ncnc3o2)cc1 | 130 | > 21000 | > 48000 | –
11 | O=C(Nc1ncnc2oc(-c3ccc(Cl)cc3)cc12)C1CCCC1 | 550 | > 20000 | > 20000 | –
12 | O=C(Nc1ncnc2oc(-c3ccc(F)cc3)cc12)C1CC1 | 575 | > 19000 | 2040 | –
13 | COc1ccc(-c2cc3c(NC(=O)c4ccco4)ncnc3o2)cc1 | 2400 | > 20000 | > 48000 | –
14 | O=C(Nc1ncnc2oc(-c3ccc(F)cc3)cc12)C1CCCC1 | 219 | > 19000 | > 19000 | –
15 | COc1ccc(-c2cc3c(NC(=O)C4CCCCC4)ncnc3o2)cc1 | 1820 | > 20000 | > 48000 | –
16 | O=C(Nc1ncnc2oc(-c3ccccc3)cc12)C1CC1 | 170 | > 21000 | 830 | –
17 | CCCCCC(=O)Nc1ncnc2oc(-c3ccc(OC)cc3)cc12 | 437 | > 19000 | > 48000 | –
18 | O=C(Nc1ncnc2oc(-c3cccnc3)cc12)C1CC1 | 5 | 440 | 3240 | 740
19 | COc1ccc(-c2oc3ncnc(N)c3c2-c2cccnc2)cc1 | 80 | – | – | –
20 | COc1ccc(-c2cc3c(NC(=O)C4CC4)ncnc3o2)cc1 | 316 | > 20000 | 3550 | –
21 | COc1ccc(-c2cc3c(NC(=O)c4cccc(F)c4)ncnc3o2)cc1 | > 35000 | > 21000 | 21900 | –
22 | Cc1ccc(-c2cc3c(NC(=O)C4CC4)ncnc3o2)cc1 [GW819230X] | 617 | > 21000 | 630 | –
